In ChEMBL document CHEMBL1136639, “Synthesis and binding affinity of neuropeptide Y at opiate receptors” (Bioorg Med Chem Lett, 2003) one finds IC50, Ki and NA data, which are given here for six molecules.

Activity calls are given as the source filed them. No cut-off for these calls is given here. Starred links: 1 amine or outer side, 2 acyl side, 3 side chain; linkers in the order of their positions; H or OH if unused. Non-standard residues stand in square brackets, D forms with d. Residues, ends and D or L forms follow the SMILES beside them. X1 = NCCCC[C@H](C(=O)[C@H](CO)N[*:1])C(=O)[*:2]

Assay [1] concerns the target T1, Mu-type opioid receptor (Homo sapiens, UniProt P35372). Description: Inhibitory activity against non-selective opiate receptor.
Assay [2] addresses T1, Mu-type opioid receptor. The experiment in a line: Binding affinity towards non-selective opiate receptor.
The target of assay [3] is T1, Mu-type opioid receptor. Description: (§1) Inhibitory activity against non-selective opiate receptor; NA=Not active.
The target of assay [4] is T1, Mu-type opioid receptor. The experiment in a line: Binding affinity towards non-selective opiate receptor; NA=Not active.
Assay [5] concerns the target T1, Mu-type opioid receptor. The description is as §1. This is another data set of the same source.

T1 sequence (P35372 whole entry): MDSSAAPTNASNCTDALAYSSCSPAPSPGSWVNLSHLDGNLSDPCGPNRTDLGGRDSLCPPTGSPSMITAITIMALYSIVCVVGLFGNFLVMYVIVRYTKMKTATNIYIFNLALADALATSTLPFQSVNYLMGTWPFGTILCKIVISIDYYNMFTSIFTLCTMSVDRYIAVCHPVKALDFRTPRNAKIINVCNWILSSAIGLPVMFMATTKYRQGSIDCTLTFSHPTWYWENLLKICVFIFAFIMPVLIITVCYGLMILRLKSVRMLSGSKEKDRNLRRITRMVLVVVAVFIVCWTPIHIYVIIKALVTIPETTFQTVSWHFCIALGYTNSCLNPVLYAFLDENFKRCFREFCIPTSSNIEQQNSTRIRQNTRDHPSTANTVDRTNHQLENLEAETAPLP

As a reminder, the IC50 is the concentration that gives 50% inhibition. High values mean a need for much substance, low ones inhibition by little substance. What is called Ki is a measure of affinity in units of concentration, obtained from inhibition or displacement. High values mean weaker binding, low ones tighter binding. For the molecule H-FPSKP-OH, 15 µM corresponded to half-maximal inhibition on Mu-type opioid receptor [1] (IC50). This molecule also had a Ki on Mu-type opioid receptor [2] of 7.5 µM.
In the case of `NCCCC[C@H](C(=O)[C@H](CO)NC(=O)[C@@H]1CCCN1C(=O)[C@@H](N)Cc1ccc(O)cc1)C(=O)N1CCC[C@H]1C(=O)N[C@@H](CC(=O)O)C(=O)N[C@@H](CC(N)=O)C(=O)N1CCC[C@H]1C(=O)O` (H-YP[X1]PDNP-OH), at Mu-type opioid receptor [3], the IC50 entry is “Not Active”. Moreover, on Mu-type opioid receptor [4], the Ki result is given as “Not Active”.
At Mu-type opioid receptor [1], `NC(=O)[C@@H]1CCCN1C(=O)[C@H](Cc1ccccc1)NC(=O)[C@@H]1CCCN1C(=O)[C@@H](N)Cc1ccc(O)cc1` [MORPHICEPTIN] (H-YPFP-NH2) gave an IC50 of 0.32 µM. Also, at Mu-type opioid receptor [2], affinity was put at a Ki of 0.15 µM.
The matching figures for `CC[C@H](C)[C@H](NC(=O)[C@H](Cc1ccc(O)cc1)NC(=O)[C@H](Cc1c[nH]cn1)NC(=O)[C@H](CCCN=C(N)N)NC(=O)[C@H](CC(C)C)NC(=O)[C@H](C)NC(=O)[C@@H](N)CO)C(=O)N[C@@H](CC(N)=O)C(=O)N[C@@H](CC(C)C)C(=O)N[C@H](C(=O)N[C@H](C(=O)N[C@@H](CCCN=C(N)N)C(=O)N[C@@H](CCC(N)=O)C(=O)N[C@@H](CCCN=C(N)N)C(=O)N[C@@H](Cc1ccc(O)cc1)C(=O)O)[C@@H](C)O)[C@@H](C)CC`: 10 µM and 5.1 µM.
At Mu-type opioid receptor [1], `NCCCC[C@H](C(=O)[C@H](CO)NC(=O)[C@@H]1CCCN1C(=O)[C@@H](N)Cc1ccc(O)cc1)C(=O)N1CCC[C@H]1C(=O)N[C@@H](CC(=O)O)C(=O)O` (H-YP[X1]PD-OH) showed an IC50 of 1.8 µM. On Mu-type opioid receptor [2], affinity was put at a Ki of 1 µM.
H-INLITRQRY-OH: the inhibition constant Ki entry at Mu-type opioid receptor [4] was “Not Active”. Moreover, the NA result on Mu-type opioid receptor [5] was “inactive”.
